The NIST ThermoML archive (doi:10.1021/je049534w)
Where “and” joins values, the source holds several entries; their conditions need not be identical. Identical values can stand only once. Numbers after ± are expanded uncertainties.

Legend:
[1] = Liquid, Linear variable-path acoustic interferometer
[2] = Solid-liquid equilibrium temperature; details: Crystal, Speed of sound

CCCCn1cc[n+](C)c1.F[P-](F)(F)(F)(F)F [1-butyl-3-methylimidazolium hexafluorophosphate]
[1]
Details	speed of sound
283.16 K, 100 kPa	1455.5 ± 7.8 m/s and 1457.6 ± 7.8 m/s
283.16 K, 5088 kPa	1468.6 ± 7.8 m/s
283.16 K, 5131 kPa	1470.6 ± 7.8 m/s
283.16 K, 10263 kPa	1481.8 ± 7.9 m/s
283.16 K, 20249 kPa	1506.7 ± 8 m/s
283.16 K, 29954 kPa	1529.9 ± 8 m/s
283.16 K, 29995 kPa	1532.5 ± 8 m/s
283.16 K, 44961 kPa	1564.2 ± 8.1 m/s
283.16 K, 59682 kPa	1596.7 ± 8.2 m/s
283.16 K, 59829 kPa	1599.6 ± 8.3 m/s
283.16 K, 79904 kPa	1638.6 ± 8.4 m/s
283.16 K, 99077 kPa	1677.1 ± 8.5 m/s
283.16 K, 124179 kPa	1724.4 ± 8.7 m/s
283.16 K, 150925 kPa	1772.6 ± 8.8 m/s
291.15 K, 100 kPa	1440.2 ± 7.8 m/s
291.15 K, 5069 kPa	1453.3 ± 7.8 m/s
291.15 K, 10166 kPa	1466.6 ± 7.8 m/s
291.15 K, 20400 kPa	1492.4 ± 7.9 m/s
291.15 K, 30019 kPa	1515.7 ± 8 m/s
291.15 K, 44920 kPa	1550 ± 8.1 m/s
291.15 K, 59912 kPa	1583.2 ± 8.2 m/s
293.16 K, 100 kPa	1432.8 ± 7.7 m/s and 1431.6 ± 7.7 m/s
293.16 K, 5157 kPa	1446.5 ± 7.8 m/s
293.16 K, 10195 kPa	1459 ± 7.8 m/s
293.16 K, 20215 kPa	1484.2 ± 7.9 m/s
293.16 K, 29959 kPa	1507.9 ± 8 m/s
293.16 K, 44757 kPa	1542.2 ± 8.1 m/s
293.16 K, 59732 kPa	1574.7 ± 8.2 m/s
293.16 K, 78627 kPa	1613.8 ± 8.3 m/s
293.16 K, 99149 kPa	1654.5 ± 8.4 m/s
294.16 K, 5125 kPa	1444.5 ± 7.8 m/s
294.16 K, 10105 kPa	1457.2 ± 7.8 m/s
294.16 K, 20357 kPa	1483.2 ± 7.9 m/s
294.16 K, 29785 kPa	1506 ± 8 m/s
303.16 K, 100 kPa	1410.3 ± 7.7 m/s
303.16 K, 5078 kPa	1423.5 ± 7.7 m/s
303.16 K, 10204 kPa	1437.1 ± 7.7 m/s
303.16 K, 20225 kPa	1462.8 ± 7.8 m/s
303.16 K, 44714 kPa	1521.3 ± 8 m/s
303.16 K, 59773 kPa	1554.6 ± 8.1 m/s
303.16 K, 98921 kPa	1634.4 ± 8.4 m/s
313.16 K, 100 kPa	1389.5 ± 7.6 m/s
313.16 K, 5010 kPa	1402.8 ± 7.6 m/s
313.16 K, 10043 kPa	1416.4 ± 7.7 m/s
313.16 K, 20319 kPa	1443.3 ± 7.8 m/s
313.16 K, 41702 kPa	1495.1 ± 7.9 m/s
313.16 K, 44866 kPa	1502.9 ± 8 m/s
313.16 K, 59754 kPa	1536.3 ± 8.1 m/s
313.16 K, 79721 kPa	1578.6 ± 8.2 m/s
313.16 K, 99097 kPa	1617.4 ± 8.3 m/s
313.16 K, 125283 kPa	1662.2 ± 8.5 m/s
323.25 K, 100 kPa	1368 ± 7.5 m/s
323.25 K, 5061 kPa	1381.8 ± 7.6 m/s
323.25 K, 9942 kPa	1395.4 ± 7.6 m/s
323.25 K, 20234 kPa	1422.7 ± 7.7 m/s
323.25 K, 29721 kPa	1446.8 ± 7.8 m/s
323.25 K, 44935 kPa	1482.2 ± 7.9 m/s
323.25 K, 59711 kPa	1516 ± 8 m/s
323.25 K, 79553 kPa	1557.9 ± 8.1 m/s
323.25 K, 98901 kPa	1592.5 ± 8.2 m/s

[2]
Details	Solid-liquid equilibrium temperature [K]
100 kPa	285 ± 0.44
34000 kPa	291.15 ± 0.72
40200 kPa	293.15 ± 0.77
42500 kPa	294.16 ± 0.94
55000 kPa	296.15 ± 0.51
88900 kPa	303.15 ± 0.54
